Test results published in US11129867B2, “Method of treating cancer cells” (priority 2017, dated 2021).
Where two headings read alike, the source gives them in different places. Where no end group is shown, it is not given here.

How the values were obtained:
[1] = system: Ca922 cells; assay: WST-8 cell viability assay, Ca922; format: cell-based, human
Protocol: (§1) Human oral squamous cell carcinoma (OSCC) cell lines, Ca922, OSC20, OECM-1, OC3, CGHNC9, HSC3, plus A549, MDA-MB-231, MCF7, Huh7, HeLa-Kyoto, Detroit 562, H520, H2170, and 293T cells were used in this study. Ca922, CGHNC9, MDA-MB-231, MCF7, Huh7, HeLa-Kyoto, Detroit 562, and 293T cells were all cultured in high-glucose Dulbecco's Modified Eagle Medium (DMEM). OSC20 and HSC3 cells were cultured in Dulbecco's Modified of Eagle's Medium/Ham's F-12 50/50 Mix (1:1). OECM-1, A549, H520, and H2170 cells were grown in RPMI-1640 medium. All culture media were supplemented with 10% fetal bovine serum (FBS) and 1% penicillin-streptomycin. OC3 cells were cultured in 1:1 DMEM/KSFM (keratinocyte serum-free medium) with supplied supplement of Bovine pituitary extract (BPE) and epidermal growth factor (EGF) followed by instruction. All the cells in this study were maintained at 37° C. in humidified atmosphere containing 5% CO2.
(§2) WST-8 [2-(2-methoxy-4-nitrophenyl)-3-(4-nitrophenyl)-5-(2,4-disulfophenyl)-2H-tetrazolium, monosodium salt] cell viability assay
(§3) Cells were seeded into 96 well plate and incubated at 37° C. overnight. Endpoint measures of TMR-GBP or drugs were performed by water soluble tetrazolium salt (WST-8)-based colorimetric assay in triplicate which measures the metabolic conversion of WST-8 into formazan by mitochondrial dehydrogenases present in viable cells. The amount of formazan produced is proportional to the number of live cells and is expressed as cellular viability. When time was up, media were removed and supplemented with WST-8 cell viability reagent-contained cell culture medium (1:10) and incubated at 37° C. for 2 hours. Besides, three wells with WST-8-dissolved medium only (without cells) were reserved as a background control. Cell viability was measured at the absorbance of 450/655 nm wavelength by ELISA reader.

[2] = system: phospho-γH2Ax; assay: Immunofluorescence staining of phospho-γH2Ax (DNA damage); format: cell-based, human; details: Ca922, H2O2 positive control, FIG. 10A
Protocol: Representative images showing DAPI-labelled nucleus (shown in blue) co-stained with phospho-γH2Ax (green). Ca922 cells were treated with 25 μM TMR-GBP for 12 or 24 hours followed by immunofluorescence staining. Foci in the nucleus indicated damaged DNA. Scale bar indicates 10 μm.
At least 20 cells were counted in each category. Bars indicate standard deviations from three independent experiments.
Immunofluorescence Staining
Cells grown on coverslips were washed with 1×PBS and fixed by PTEMF buffer (20 mM PIPES pH 6.8, 0.2% Triton X-100, 10 mM EGTA, 1 mM MgCl2, and 4% formaldehyde) or 4% paraformaldehyde for 10 minutes at room temperature. Then, fixation buffer was replaced with 1×PBST and the cells were washed with 1×PBST for another 10 minutes at room temperature. Coverslips were washed with 1×PBST twice gently and incubated with primary antibodies at room temperature for 1 hour. Next, washed with PBST for three times (2, 2, 5 minutes). Afterwards, coverslips were cultured in Alex Fluor-conjugated secondary antibodies and DAPI at room temperature for 30 minutes, washed three times (2, 2, 5 minutes), rinsed with ddH2O and mounted with mounting medium. Antibodies concentration used in this analysis is 1:1000 dilution. Images were acquired with specific fluorescence wavelength by Leica DMI6000 inverted microscope equipped with HCX PL FL 100λ/NA1.40 objective and EMCCD camera. All images were analyzed by MetaMorph software.

[3] = system: Ca922 cells; assay: Annexin V staining with flow cytometry; format: cell-based, human; details: Ca922, 1% H2O2 positive control, FIG. 6A
Protocol: […] Diluted 10× Binding Buffer to 1× using distilled water. Washed cells once in PBS, then once in 1× Binding Buffer. Resuspended cells in 1× Binding Buffer at 1-5×10^6/mL. Next, added 5 μL of fluorochrome-conjugated Annexin V to 100 μL of the cell suspension. Sample was incubated 10-15 minutes at room temperature. Afterwards, washed cells in 1× Binding Buffer and resuspend in 200 μL of 1× Binding Buffer. Analyzed by flow cytometry within 4 hours, storing at 2-8° C. in the dark.

[4] = system: Detroit 562; assay: WST-8 cell viability assay, Detroit 562; format: cell-based
Protocol: as §1, §2, §3

[5] = system: H520; assay: WST-8 cell viability assay, H520; format: cell-based
Protocol: as §1, §2, §3

[6] = system: Ca922 cells; assay: Time-lapse live cell imaging, Ca922; format: cell-based; details: Ca922, 12.5 μM, exposed to 532 nm, 488 nm, 405 nm and brightfield, after 20 hours, FIG. 2
Protocol: Ca922 cells were grown on 35 mm culture dishes overnight then treated with 1% DMSO, 12.5 μM TMR, GBP, TMR-GBP respectively and monitored by time-lapse live cell microscope. Cells were exposed to indicate wavelength once every 4 hours for 100 ms and continuously for 20 hours. At least 300 cells in five different fields were counted for each experiment using microcopy that captured images under 10× magnification. Mortality rate was evaluated by counting the percentage of dead cells in the whole population. Standard deviations of three independent experiments were indicated as bars.
Time-Lapse Live Cell Imaging
In order to monitor cell morphology and the stability of TMR-GBP, cells were incubated in 35 mm dish or 4 well dish at 37° C. overnight. Replaced the culture medium with CO2-independent medium with supplement of 10% fetal bovine serum (FBS) and 1% penicillin-streptomycin, cells were treated with reagent (TMR, GBP, TMR-GBP) for the time according to the experiment and subjected to time-lapse live cell imaging. Cells were maintained on the microscope stage incubator at 37° C. Multiple-positional time-lapse imaging was performed using an automated Leica DMI6000 inverted microscope equipped with an HCX PL FL 20λ/NA0.4 objective and Andor Luca R EMCCD camera. Images of cells were taken at different interval time and analyzed by MetaMorph software.

[7] = system: H2170; assay: WST-8 cell viability assay, H2170; format: cell-based
Protocol: as §1, §2, §3

Q: How did the “effect on cell viability” value ([1]; Ca922, 1 mM EGTA, 50 hours, FIG. 8A) turn out when `O=C(O)CN(CCOCCOCCN(CC(=O)O)CC(=O)O)CC(=O)O` [EGTA, ethylene glycol tetraacetic acid, reference compound] was run?
A: Its value is “no significant effect on cell viability”.

Q: With `OO` [H2O2, reference compound] as the compound, how does the “phospho-γH2Ax foci in the nucleus (DNA damage)” value [2] read?
A: Its value is “many foci were observed accumulating in the nucleus”.

Q: And the “apoptosis by Annexin-V-FITC labeling” value [3]?
A: Its value is “induces apoptosis in Ca922”.

Q: With `CN(C)c1ccc2c(-c3ccccc3C(=O)[O-])c3ccc(N(C)C)cc3[o+]c2c1` [TMR, Tetramethylrhodamine, reference compound] as the compound, how does the “cytotoxicity (cell viability)” value ([1]; Ca922 (oral cancer), different concentrations, 48 hours, FIG. 5) read?
A: Its value is “neither TMR-GBPR3QW4R nor TMR alone induce cytotoxicity”.

Q: And the “cytotoxicity (cell viability)” value ([4]; Detroit 562 (pharynx cancer), different concentrations, 48 hours, FIG. 5)?
A: Its value is “neither TMR-GBPR3QW4R nor TMR alone induce cytotoxicity”.

Q: What about the “cytotoxicity (cell viability)” value ([5]; H520 (lung cancer), different concentrations, 48 hours, FIG. 5) of the same compound?
A: Its value is “neither TMR-GBPR3QW4R nor TMR alone induce cytotoxicity”.

Q: And the “cytotoxicity under light stress (mortality)” value [6]?
A: Its value is “more sensitive to 532 nm light stress and displayed cytotoxic effects”.

Q: What about the “cytotoxicity (cell viability)” value ([7]; H2170 (lung cancer), different concentrations, 48 hours, FIG. 5) of the same compound?
A: Its value is “neither TMR-GBPR3QW4R nor TMR alone induce cytotoxicity”.

Q: Which “cytotoxicity (cell viability)” value [1] does the source give for “TMR-GBPR3QW4R: TMR conjugate of peptide GBPR3QW4R, NYQRRCKNQN (SEQ ID NO. 4) (not fully specified (N-terminus); also: TMR conjugate, site not given here; listed as Homo sapiens)” here?
A: Its value is “neither TMR-GBPR3QW4R nor TMR alone induce cytotoxicity”.

Q: And the “cytotoxicity (cell viability)” value [4]?
A: Its value is “neither TMR-GBPR3QW4R nor TMR alone induce cytotoxicity”.

Q: What about the “cytotoxicity (cell viability)” value [5] of the same compound?
A: The value was “neither TMR-GBPR3QW4R nor TMR alone induce cytotoxicity”.

Q: And the “cytotoxicity (cell viability)” value [7]?
A: Its value is “neither TMR-GBPR3QW4R nor TMR alone induce cytotoxicity”.

Q: Which results are given for “TMR-GBPW4R: TMR conjugate of peptide GBPW4R, NYRRRCKNQN (SEQ ID NO. 3) (not fully specified (N-terminus); also: TMR conjugate, site not given here; listed as Homo sapiens)”?
A: cytotoxicity (cell viability) [4]: could induce cytotoxicity; cytotoxicity (cell viability) [5]: could induce cytotoxicity; cytotoxicity (cell viability) [7]: could induce cytotoxicity
